# Where “and” joins values, the source holds several entries; their conditions need not be identical. Equal values may be shown once.
# Tests used:
# [1] = Body weight of rats after LPS modeling (Example 1); assay type: in vivo
# Protocol: (§1) Normal adult male SD rats were randomly grouped, 5 rats in each group. The animals were intraperitoneally injected and nebulized in the trachea with lipopolysaccharides (LPS) as a modeling reagent, as shown in Table 1:
# (§2) The animals in groups G1 and G2 were intraperitoneally injected with lipopolysaccharides (0.8 mg/kg. body weight) according to their body weight, anesthetized by inhaling isoflurane after 16 h of the intraperitoneal injection, and nebulized with lipopolysaccharides (5 mg/kg. body weight) in the trachea.
# (§3) The animals were administered for the first time within 1 h after the intratracheal nebulization with the modeling reagent (LPS), and the second time after 24 h.
# Before grouping, the animals were weighed on the day of modeling and the day of administration of samples; and the animals were also weighed when they were found dead or on the brink of euthanasia.
# [2] = tested on: rats with a lung injury; assay: Survival test, LPS lung injury rats (Example 2); assay type: in vivo, Sprague-Dawley rats; settings: test sample group, 0.75 mg/kg intravenous, 6 rats
# Protocol: Animal grouping: 18 qualified male animals were randomly divided into a normal control group, a model control group, and a test sample group according to their body weight measured before grouping, with 6 animals per group.
# (§4) D0: The animals in the normal control group were intraperitoneally injected with sodium chloride injection (1 ml/kg), while the animals in other groups were intraperitoneally injected with lipopolysaccharides (1 mg/kg, 1 ml/kg).
# (§5) D1: After 16 h (+30 min) of intraperitoneal injection, the animals were anesthetized by inhaling isoflurane. The animals in the normal control group were nebulized with sodium chloride injection (1 mL/kg) in the trachea, while the animals in other groups were nebulized with lipopolysaccharides (5 mg/kg, 1 ml/kg) in the trachea.
# D1: About 3 h to 5 h after the intratracheal nebulization of the modeling reagent (LPS), the animals were administrated with the test sample or solvent according to the following table 8: […]
# After planned euthanasia, a rate of a quantity of live animals in each group to a total quantity of animals in each group in an experimental period was calculated.
# Survival rate (%)=the quantity of live animals in a group/the total quantity of animals in the group×100%.
# [3] = tested on: LPS-induced acute respiratory distress syndrome; assay: Histopathological examination of lung, HE staining, LPS-induced ARDS rat model (Example 1); assay type: in vivo, SD rats; design: key to Pulmonary pathological score, Inflammation, Sited 1 / Pulmonary pathological score, Inflammation, Sited 2 / Pulmonary pathological score, Inflammation, Sited 3 / Pulmonary pathological score, Alveolar wall thickness, Sited 1 / Pulmonary pathological score, Alveolar wall thickness, Sited 2 / Pulmonary pathological score, Alveolar wall thickness, Sited 3: 0: NA; 1: Slight; 2: Moderate; 3: Severe; Pulmonary pathological score, Mean of total / Pulmonary pathological score, Inflammation, Mean / Pulmonary pathological score, Alveolar wall thickness, Mean / Pulmonary pathological score, Total: scale not given here
# Protocol: as §1, §2, §3
# After the bronchoalveolar lavage fluid was collected from all the animals, the chest cavity was opened to take the right lung. The lung was infused with formalin by using an injection needle, fixed in a 10% neutral buffer formalin solution, followed by paraffin embedding, slicing, section preparation, and HE staining for pathological morphological observation of lung tissues. Professional pathologists carried out pathological testing on the lung tissues.
# [4] = tested on: rats with a lung injury; assay: Histopathological examination of lung, 5-grade method (Example 2); assay type: in vivo, Sprague-Dawley rats
# Protocol: as §4, §5
# (§6) Administration frequency and duration: On D1, the animals were administered for the first time within 3 h after the intratracheal nebulization with the modeling reagent (LPS); and on D2, the animals were administered for the second time. The interval between the two administrations was about 24 h (+20 min).
# General observation: All animals in each group (including dead animals) were dissected and their tissues were stored. The animals that died during non-working hours were stored in the 2° C.-8° C. refrigerator and dissected as soon as possible within 24 hours. After dissecting and retaining tissues, animal carcasses were disposed of as medical waste.
# During the autopsy, whether the lungs, trachea, and bronchi of the animals were abnormal were observed. The middle lobe of the right lung was incised and weighed for calculating a wet/dry weight ratio. The remaining tissues and bronchi of the right lung were fixed in a 10% neutral buffered formalin solution, followed by paraffin embedding, slicing, section preparation, and HE staining for pathological morphological observation of lung tissues. Standard terminologies were used for diagnosis and classification, and the lung tissues were pathologically examined by a 5-grade method (slight, mild, moderate, obvious, and severe).
# [5] = tested on: rats with a lung injury; assay: Blood gas test, LPS lung injury rats (Example 2); assay type: in vivo, Sprague-Dawley rats
# Protocol: as §4, §5, §6
# Test time: the day after the second administration (D3)
# Sample collection: The rats were anesthetized by intraperitoneal injection with chloral hydrate (350 mg/kg, 100 mg/mL), and their abdominal midline was longitudinally incised to separate the abdominal aorta. About 0.2 mL of arterial blood was collected with an arterial blood sampler. A syringe in the blood sampler was rubbed in the palm and turned upside down for 5 seconds to ensure that the blood was never returned to the blood sampler for blood mixing treatment.
# Testing method: After the arterial blood was collected, a needle was gently inserted into a blood injection port of a test card, and the blood was gently pushed in and filled a sample filling tube. When the blood reached an adding position, the adding of the sample was stopped, a lid was closed, and the blood automatically entered the test tube. The test card was inserted into a blood gas analyzer to wait for test results.
# Test indicators: PO2 (mmHg), PCO2 (mmHg), pH, and sO2%.
# [6] = G2 compared to model control group G1
# [7] = mean of 3 sites per animal G2-1 to G2-5, 1 mg/kg
# [8] = single animals G2-1 to G2-5, 1 mg/kg, score 0-3
# [9] = ++ = mild, test sample group, 6 rats, 0.75 mg/kg
# [10] = +++ = moderate, test sample group, 6 rats, 0.75 mg/kg
# [11] = ++++ = obvious, test sample group, 6 rats, 0.75 mg/kg
# [12] = +++++ = severe, test sample group, 6 rats, 0.75 mg/kg
# [13] = test sample group vs model control group
# [14] = − = no lesion, test sample group, 6 rats, 0.75 mg/kg
# [15] = arterial blood, D3, 0.75 mg/kg i.v. twice, 6 rats, x ± SD
substance,measurement,setting,value
Annexin A5,"Body weight, Day 0","[1]; G2 mean, 5 rats, 1 mg/kg caudal vein injection, Day 0",254.49 g
same,"Body weight, Day 1","[1]; G2 mean, 5 rats, 1 mg/kg caudal vein injection, Day 1",240.80 g
same,"Body weight, Day 2","[1]; G2 mean, 5 rats, 1 mg/kg caudal vein injection, Day 2",224.36 g
same,"Body weight, Day 3","[1]; G2 mean, 5 rats, 1 mg/kg caudal vein injection, Day 3",241.86 g
same,Body weight compared between groups,"[1]; after LPS modeling, G2 vs G1",no significant difference between the groups
same,Survival rate,[2],100%
same,Effect on LPS-induced acute respiratory distress syndrome (pathological analysis),[3]; [6],significant improvement
same,Lung injury in stained pathological sections (FIG. 4),[3]; [6],significantly improved
same,"Pulmonary pathological score, Mean of total","[3]; group G2, 5 rats, 1 mg/kg",2.33
same,"Pulmonary pathological score, Alveolar wall thickness, Mean",[3]; [7],0.67 (3×) and 1.00 and 1.33
same,"Pulmonary pathological score, Inflammation, Mean",[3]; [7],1.67 and 2.00 and 1.33 (2×) and 1.00
same,"Pulmonary pathological score, Total","[3]; per animal G2-1 to G2-5, 1 mg/kg",2.33 (2×) and 3.00 and 2.00 (2×)
same,"Pulmonary pathological score, Alveolar wall thickness, Sited 1",[3]; [8],0 (2×) and 1 (2×) and 2
same,"Pulmonary pathological score, Alveolar wall thickness, Sited 2",[3]; [8],1 (4×) and 2
same,"Pulmonary pathological score, Alveolar wall thickness, Sited 3",[3]; [8],1 (3×) and 0 (2×)
same,"Pulmonary pathological score, Inflammation, Sited 1",[3]; [8],2 (2×) and 1 (3×)
same,"Pulmonary pathological score, Inflammation, Sited 2",[3]; [8],2 and 3 and 1 (3×)
same,"Pulmonary pathological score, Inflammation, Sited 3",[3]; [8],1 (3×) and 2 (2×)
same,Bleeding of the lung under a microscope,"[4]; 0.75 mg/kg i.v. twice, D3",mildly
same,Infiltration of the lung by inflammatory cells under a microscope,"[4]; 0.75 mg/kg i.v. twice, D3",moderately to obviously
same,Proliferation of alveolar epithelial cells under a microscope,"[4]; 0.75 mg/kg i.v. twice, D3",mild to moderate
same,Degree of alveolar wall thickening lesion: number of animals with grade ++,[4]; [9],3
same,Degree of inflammatory cell infiltrating lesion: number of animals with grade ++,[4]; [9],0
same,Degree of alveolar wall thickening lesion: number of animals with grade +++,[4]; [10],3
same,Degree of inflammatory cell infiltrating lesion: number of animals with grade +++,[4]; [10],2
same,Degree of alveolar wall thickening lesion: number of animals with grade ++++,[4]; [11],0
same,Degree of inflammatory cell infiltrating lesion: number of animals with grade ++++,[4]; [11],4
same,Degree of alveolar wall thickening lesion: number of animals with grade +++++,[4]; [12],0
same,Degree of inflammatory cell infiltrating lesion: number of animals with grade +++++,[4]; [12],0
same,Change of inflammatory cell infiltrating lesions,"[4]; in all rats, vs model",changed from severe and obvious to obvious and moderate
same,Change of alveolar wall thickness,"[4]; in half of the rats, vs model",changed from moderate to mild
same,Degree of lung lesions,[4]; [13],lower than that of the model control group
same,Degree of alveolar wall thickening lesion: number of animals with grade −,[4]; [14],0
same,Degree of inflammatory cell infiltrating lesion: number of animals with grade −,[4]; [14],0
same,PCO2,[5]; [15],46.63 ± 6.17 mmHg
same,PO2,[5]; [15],82.5 ± 8.7 mmHg
same,pH,[5]; [15],7.372 ± 0.049
same,sO2 %,[5]; [15],95.5 ± 1.0 %
same,Change in the pH indicator,[5]; test sample group,no significant change
same,"Change of PO2, sO2% and PCO2 after administration",[5]; [13],all increased with statistical differences

# From US20240189388A1, “MEDICATION FOR TREATING LUNG INJURY” (SHANGHAI SEME CELL TECHNOLOGY CO., LTD., priority 2021, published 2024)
